Results published in US20220372014A1, “NEUROPROTECTIVE COMPOUNDS AND METHODS OF USE THEREOF” (The Johns Hopkins University, priority 2019, published 2022).

Tests used:
DNA-MIF/PAAN complex = target: T1, DNA-MIF/PAAN complex (Homo sapiens, UniProt P14174); assay: Electrophoretic mobility shift assay (EMSA) of PAAN/MIF with biotin-labeled DNA substrate (PS30); format: binding; conditions: 1-100 μM
T1 construct: GST (N, cleaved yes); made in house; host or cells: Escherichia coli
Description: Electrophoretic mobility shift assay (EMSA). EMSA assays were performed using the Light-Shift Chemiluminescent EMSA kit (Thermo Scientific) following the manufactures instruction. Recombinant PAAN/MIF protein (2 μM) was incubated with 1-100 μM PAANIB-1 as indicated in the binding buffer containing 10 mM MgCl2 for 10 min and further incubated with biotin-labeled DNA substrates (10 nM) for 30 min on ice. The mixture were separated on 6% retardation polyacrylamide and transferred to a Nylon membrane. Immunoblot analysis was performed to detect the biotin-labeled DNA using the Chemiluminescent Nucleic Acid Detection Module (Thermo Scientific).

PAAN/MIF WT or variants = target: T2, PAAN/MIF WT or variants (Homo sapiens, UniProt P14174); assay: Biolayer interferometry (ForteBio Octet) binding assay; conditions: PAAN/MIF WT
T2 construct: made in house; host or cells: Escherichia coli
From the text: Purification of PAAN/MIF recombinant proteins. Human PAAN/MIF (NM_002415) cDNA and its variants were subcloned into pGEX-6β-1 vector (GE Healthcare) and mutants were generated using a QuikChange site-directed mutagenesis kit (Stratagene). The sequences were confirmed by automated DNA sequencing. The protein was expressed and purified from Escherichia coli by glutathione sepharose (GE Healthcare). The GST tag was subsequently proteolytically removed. GST protein was used as a negative control in the nuclease assay and PAAN/MIF proteins purified by FPLC using Superdex 200 10/300GL column (GE Healthcare, Life Sciences) were also used in the nuclease assays.
Biolayer interferometry assay. The dose-dependent binding of compound 121 for PAAN/MIF WT or PAAN/MIF variants were determined by a biolayer interferometry assay using Octet RED96 (ForteBio). See Guo et al. (2018) Nat. Chem. 11:254-63. All the proteins used in this assay were tagged with GST. Anti-GST biosensor tips (ForteBio) were used to immobilize the GST proteins after prewetting with 1X kinetic buffer (ForteBio). The equilibrated GST biosensors were loaded with PAAN/MIF WT or variants (25 μg/ml). Background binding controls were measured by sensors that were incubated in buffer without proteins. All assays were performed by a standard protocol in 96-well black plates (Greiner Bio) with a total volume of 200 μl per well. All the data were analyzed by Octet data analysis software.

pS6 kinase activity = assay: Immunoblot of pS6K, pS6 and p4E-BP1 levels in SH-SY5Y cells; format: cell-based; conditions: 0.5 or 1 μM, 3 h
From the text: FIGS. 14A-14G show the characterization of compound 121. […] Bars represent means±s.e.m. ***P<0.0005, two-way ANOVA followed by Tukey's post hoc test (n=4). […] Bars represent mean±s.e.m. ***P<0.0005, two-way ANOVA followed by Tukey's post hoc test (n=4). […] Bars represent means±s.e.m. **P<0.005, ***P<0.0005, one-way ANOVA followed by Tukey's post hoc test (n=3). […] Bar represent mean±s.e.m. ***P<0.0005, one-way ANOVA followed by Tukey's post hoc test (n=3). […] Quantification of inhibition of PARP-1 activity by compound 56, compound 121 and ABT-888 is shown. Graphs represent mean±s.e.m. ***P<0.0005, two-way ANOVA followed by Tukey's post hoc test (n=3). FIGS. 14F and 14G show Alamar blue cell viability assay from SH-SY5Y cells pre-incubated with either compound 56 or 121 in response to (14F) 0.5 μM staurosporine (STS) or (14G) from HT 22 cells incubated with 1 ng/ml of TNF-α with 50 μM z-VAD. Bars represent mean±s.e.m. ***P<0.0005, two-way ANOVA followed by Tukey's post hoc test (n=5).
Tissue lysate preparation and western blot analysis. […] Protein concentrations were determined using the BCA assay (Pierce) and samples were separated using SDS polyacrylamide gels and transferred onto nitrocellulose membranes. […]

human cortical neurons = assay: α-syn PFF-induced cell death in human cortical neurons (Hoechst and PI staining); format: cell-based; conditions: pre-incubated 1 h, α-syn PFF 14 days
Description: Preparation of human cortical neurons. Human H1 embryonic stem cells (ESCs) were differentiated into cortical neurons as previously described. See Xu et al. (2016) Sci. Transl. Med. 8:333ra48. Briefly, ESC colonies detached from mouse embryonic fibroblasts (MEFs) were grown in suspension in human ESC medium without FGF2 for 6 days in low-attachment six-well plates (Corning). On day 7, free-floating embyroid bodies (EB)s were transferred to Matrigel coated plates to allow the complete attachment of EB and formation of rosette neuronal aggregates (RONAs). RONAs were manually microisolated and maintained as neurospheres for 1 day and then dissociated into single cells and plated on laminin/poly-D-lysine-coated plates for further experiments. […]
Cell death and viability assessment. Primary cultured cortical neurons were treated with 5 μg/ml of α-syn PFF for 14 days and cell death was determined by staining of all nuclei with 7 μM Hoechst 33342 and dead cell nuclei with 2 μM propidium iodide (PI) (Invitrogen). The numbers of total and dead cells were counted with the Axiovision 4.6 software (Carl Zeiss). Cell viability was determined by fluorescence at an excitation wavelength 570 nm and an emission wavelength 585 nm using Alamar Blue (Invitrogen).

T1 sequence (P14174 whole entry, one chain of several): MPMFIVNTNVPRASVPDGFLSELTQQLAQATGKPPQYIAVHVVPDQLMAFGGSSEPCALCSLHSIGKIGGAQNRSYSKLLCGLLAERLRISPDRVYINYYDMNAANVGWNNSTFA

Structure (SMILES): COc1ccc(CC[C@H]2OC(=O)[C@@H]3CCCCN3C(=O)C(=O)C(C)(C)COC(=O)C=CCCN(C)C(=O)[C@@H]3CCCN3C(=O)[C@H](COC(C)(C)C)N(C)C(=O)C(c3ccccc3)NC(=O)[C@H](C)N(C)C(=O)COc3cc(F)cc2c3)cc1OC (mixture of isomers) [compound 121]
- interaction of PAAN/MIF with its substrate (DNA-MIF/PAAN complex): does not disrupt
- Kd, binding affinity of PAAN/MIF (PAAN/MIF WT or variants): 1.56 µM
- rapamycin sensitive pS6 kinase activity (pS6 kinase activity): failed to inhibit

Structure (SMILES): COc1ccc(CC[C@H]2OC(=O)[C@@H]3CCCCN3C(=O)C(=O)C(C)(C)COC(=O)C=CCCN(C)C(=O)[C@@H]3CCCN3C(=O)[C@H](CO)N(C)C(=O)C(c3ccccc3)NC(=O)[C@H](C)N(C)C(=O)COc3cccc2c3)cc1OC (stereo partly drawn) [compound 97]
- binding to PAAN/MIF (PAAN/MIF WT or variants): lack of binding

Structure (SMILES): COc1ccc(CC[C@H]2OC(=O)[C@@H]3CCCCN3C(=O)C(=O)C(C)(C)COC(=O)C=CCCN(C)C(=O)[C@@H]3CCCN3C(=O)[C@H](COC(C)(C)C)N(C)C(=O)C(c3ccccc3)NC(=O)[C@H](C)N(C)C(=O)COc3cccc2c3)cc1OC (stereo partly drawn) [compound 56]
- cell death in human cortical neurons treated with human α-syn PFF (human cortical neurons): protected against cell death similar to ABT-888

Structure (SMILES): COc1ccc(CC[C@H]2OC(=O)[C@@H]3CCCCN3C(=O)C(=O)C(C)(C)COC(=O)C=CCCN(C)C(=O)[C@H](C)NC(=O)[C@H](C(C)C)N(C)C(=O)[C@@H](Cc3ccccc3)NC(=O)[C@H](CC(C)C)N(C)C(=O)CCC(=O)Nc3cccc2c3)cc1OC [compound 77]
- cell death in human cortical neurons treated with human α-syn PFF (human cortical neurons): protected against cell death similar to ABT-888
